In patent publication US20070141158A1, “Amphiphilic heparin derivative formed by coupling a heparin with a bile acid” (ETHYPHARM, priority 2003, published 2007):

Test: Incorporation (solubilization) of hydrophobic active ingredients into aqueous solution of heparin hydrophobized with cholic acid (HEP19CHO), dissolution method
Assay type: physicochemical
Conditions: for increase of quantity in solution: HEP19CHO (Cp=8.6 mg/ml) after 6 days of incorporation, versus water (FIG. 4)
Procedure: An example of a method of incorporation by direct dissolution is described below. 30 mg of hydrophobized heparin are introduced into a tube and 3 ml of distilled water are added thereto. After dissolution, a large excess of active ingredient (15 to 30 mg) is introduced into the mixture.
A phase of stirring the mixture obtained is carried out by means of a magnetic stirrer bar for several days. The mixture is then centrifuged and the supernatant is passed through a 0.45 μm filter. The quantity of active ingredient solubilized in the solutions of hydrophobized heparin may be determined by UV/visible spectroscopy or by HPLC.
The nonsolubilized active ingredient is removed after filtration of the solutions on a membrane having a porosity of 0.45 μm. The quantity of active ingredient in solution is then determined. Having determined the quantities solubilized in water and those dissolved in the hydrophobic domains, it is then possible to calculate a partition coefficient hydrophobic domains/water which is called Log P′ by analogy with Log P.
Indeed, the relative solubility of molecules between an oily phase and an aqueous phase is described by the partition coefficient P which represents the distribution of the molecules between two solvents, generally water and octanol. The use of its logarithm, log P, is often preferred. […] Likewise for Log P′ which expresses the ratio of the solubilities of the active agent in water and in the solution of hydrophobized heparin.
The incorporation of active ingredients was essentially carried out by the dissolution method. In this method, the compound to be incorporated is placed in solid form in a tube containing water or a colloidal solution of hydrophobized heparin, at the concentration Cp (mg/ml).
The mixing is performed with stirring at room temperature for various times. The compound to be incorporated remains at saturating concentration in the medium. At the end of the incorporation period, the tubes are subjected to a centrifugation step and the supernatants are filtered on 0.45 μm filters and assayed. Control solutions (water or nonhydrophobized heparin) are treated in the same manner.
The quantity of active ingredient incorporated into the various media is quantified by HPLC and/or by measuring the UV absorbance.
Thus, the incorporation is expressed in milligram of active ingredient per gram of polymer (mg/g P) or in micromole of active ingredient per gram of polymer (μmol/g P). This incorporation level is calculated by taking the ratio between the concentration of the active ingredient in solution and the concentration of the polymer. […] The difference in concentration of active ingredients in water and in a solution of hydrophobized heparin represents the quantity of active ingredient effectively present in hydrophobic micro-domains formed by the grouping together of cholic acid residues.

Row | SMILES | level of incorporation into the hydrophobic domains (HEP19CHO 8 mg/ml, after 3 days) | increase of quantity in solution | gain in solubility relative to water (HEP19CHO calcium salt, 8 mg/ml, after 3 days (FIG. 3)) | concentration of carbamazepine present in the hydrophobic domains (HEP19CHO solution 8 mg/ml, after 3 days, HEP19CHO solution minus aqueous phase) | affinity for the hydrophobic domains (among the molecules tested) (HEP19CHO, Table 5 molecules) | times as soluble in a solution of hydrophobized heparin as in water (HEP19CHO solution versus water)
1 | NC(=O)N1c2ccccc2C=Cc2ccccc21 [Carbamazepine] | 70 mg/g P | increased ten fold | exceeds 500% | 560 µg/mL | highest affinity for the hydrophobic domains | –
2 | CCC(C)n1ncn(-c2ccc(N3CCN(c4ccc(OCC5COC(Cn6cncn6)(c6ccc(Cl)cc6Cl)O5)cc4)CC3)cc2)c1=O (stereo not shown) [Itraconazole] | – | > 2000 fold | – | – | – | more than 2000 times
